{"source": "patent US20260102377A1", "about": "“COMPOSITIONS AND METHODS FOR TREATING MYASTHENIA GRAVIS” (priority 2022, published 2026)", "tested_on": "EAMG rats", "experiment": "Grip strength test after single dose of Mestinon and CIC-1 inhibitor alone or in combination", "format": "in vivo, rat", "settings": "per oral, 45 minutes post dosing, 0.375 mg/kg Mestinon, 20 mg/kg NMD670 or both", "method": "To induce EAMG, 250 μL of emulsion of Complete Freund's Adjuvant, consisting of heat-inactivated Mycobacterium tuberculosis H37Ra in non-metabolizable oils, together with Phosphate-Buffered Saline (PBS) and 80 μg of the extracellular α-domain peptide fragment of the human nicotinic acetylcholine receptor (antigen) was injected subcutaneously in seven-week-old, anaesthetized Lewis rats. The disease-inducing antigen was supplied by the Hellenic Pasteur institute3. The emulsion was deposited at the tail base, left hindleg, and right foreleg. After injection, animals were allowed to recover and returned to their home cage maintained in ventilated racks under controlled temperature (20 to 22° C.) and humidity (˜55%) control, under a 12-h light/12-h dark cycle with food and water provided ad libitum. The animals had pathogen free status and the housing and changing system was designed to assure that the pathogen free status was preserved during the study. The EAMG rats were observed, weighed, and scored for MG symptoms weekly until symptoms of MG developed, whereafter animals were observed daily.\nIn EAMG animals with severe MG symptoms the effects of CIC-1 inhibitor and Mestinon (pyridostigmine) alone or in combination was assessed. […] The study was blinded to both the experimenter and during subsequent analysis. Animals were subjected to grip strength test before compound administration, as described above and then dosed per oral with either 0.375 mg/kg pyridostigmine bromide (Mestinon) (CAS-no 101-26-8), 20 mg/kg NMD670 or a combination of both pyridostigmine and NMD670. Grip strength was tested 45 minutes post dosing. […] The change in grip strengths was calculated for individual animals relative to the results obtained prior to administration of test article and then averaged.\nGrip strength was measured on a BIOSEB BIO-GT3 Grip strength meter (force transducer, S/N 180271). […] Care was taken to ensure that the force recorded reflected the grip strength of the rat and not the force of the pulls conducted by the operator. […]", "note": "Values joined by “and” are separate entries in the source; they are usually repeats but may differ in a detail not shown here. Identical values can stand only once."}
{"smiles": "CN(C)C(=O)Oc1ccc[n+](C)c1", "note": "[Mestinon, pyridostigmine bromide, reference compound]", "values": [{"measurement": "Increase in Pulled Force (%)", "result": "5±4% and 5.3 ± 3.8%"}]}
